Measurements from US9266904B2, “6-bridged heteroaryldihydropyrimidines for the treatment and prophylaxis of hepatitis B virus infection” (priority 2013, dated 2016).
≈ marks a conversion by molar mass, not a printed value. Where two headings read alike, the source gives them in different places.

Experiments:
[1] = Cytotoxicity (CCK-8 cell viability) and selectivity index; type: cell-based, human; conditions: human, HepDE19 cells; cytotoxicity, concentration resulting in death of 50% of host cells
Text: (§1) HepG2.2.15 and HepDE19 are stably-transfected cell lines containing the HBV genome. Both cell lines are derived from the hepatoblastoma cell line Hep G2 (American Type Culture Collection, ATCC® HB-8065™) by the published procedures described in references: M A Selles et al. Proc. Natl. Acad. Sci. USA 1987, 84, 1005-1009 and H Guo et al. Journal of Virology 2007, 81, 12472-12484, respectively. Both cell lines were maintained in Dulbecco's modified Eagle's medium (DMEM)-F12 medium supplemented with 10% fetal bovine serum, 100 U/mL penicillin, 100 μg/mL streptomycin, and 0.5 mg/mL of G418.
(§2) In a cell culture model, apparent antiviral activity of a compound can be the result of host cell death after exposure to the compound. To determine whether the anti-HBV effect of a test compound is due to cytotoxicity, HepDE19 cells were seeded into 96-well plates (5×10^3 cells per well) and treated with compounds as described above for EC50 determination. Five days after treatment, cell viability was measured by addition of 20 μL of CCK-8 reagent. Two hours after incubation at 37° C., the absorbance at wavelengths of 450 nm and 630 nm (OD450 and OD630) was recorded by a plate reader. The concentration results in the death of 50% of the host cells (CC50) of each compound was determined (See Table 5).

HepDE19 cells = test: as above; type: cell-based, human; conditions: CC50 value/EC50 value
Text: as §1, §2

[2] = Human microsomal clearance assay; type: in vitro ADME
How it was run: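 Liver microsomes (0.5 mg/mL protein) were incubated with 1 μM compound at 37 °C, pH 7.4 phosphate, with an NADPH-regenerating system. Samples at 0-30 min were quenched and measured by LC-MS/MS for parent loss. No-NADPH controls were included.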

[3] = tested on: HBV replication in HepG2.2.15 cells; test: Anti-HBV activity in vitro in HepG2.2.15 cells (extracellular HBV DNA by qPCR); type: cell-based; conditions: Hepatitis B virus, HepG2.2.15, Anti-HBV activity in HepG2.2.15 cells; read-out: EC50
How it was run: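 Constitutively HBV-producing HepG2.2.15 cells were seeded overnight at 37 °C, then treated with half-log serial dilutions of compound (0.5% DMSO final) for five days. Supernatant HBV DNA was extracted and quantified by qPCR; EC50 is the concentration inhibiting HBV replication by 50%.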

[4] = Lyophilisation solubility assay (Lysa); type: physicochemical; conditions: thermodynamic from solid
How it was run: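 DMSO was evaporated from 10 mM stocks, and residues were taken up in 0.05 M phosphate buffer pH 6.5, stirred 1 h, shaken 2 h and left overnight. Filtrates were quantified by UV or HPLC-UV against a four-point calibration, in duplicate. Values are in μg/ml, with a lower-bound value when >80% dissolved.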

[5] = aqueous buffer, 0.05 M phosphate buffer (pH 6.5), reported as bigger than the value if more than 80% of the sample is in solution, read-out: Lysa

SMILES	CC50 at 5 days [1]	Selectivity index (CC50/EC50) (HepDE19 cells)	CLh ([2]; human, 1 μM, pH 7.4)	EC50 [3]	solubility thermodynamic ([4]; pH 6.5, aqueous buffer)	CLh ([2]; human microsomal clearance)	solubility thermodynamic [4, 5]
COC(=O)C1=C(CN2C3CC(F)(F)C2C[C@@](O)(CC(=O)O)C3)NC(c2nccs2)=N[C@H]1c1ccc(F)cc1Cl (single isomer, unassigned) [Example 116]	> 100000 nM	>13699	2.6 mL/min/kg	7.3 nM	495 µg/mL (≈ 846 µM)		
COC(=O)C1=C(CN2C3CC(F)(F)C2C[C@@](O)(CC(=O)O)C3)NC(c2nccs2)=N[C@@H]1c1ccc(F)c(F)c1C (single isomer, unassigned) [Example 118]	45000 nM	8960	3.1 mL/min/kg	5 nM	112 µg/mL (≈ 192 µM)		
COC(=O)C1=C(CN2C3CC(F)(F)C2C[C@@](O)(CC(=O)O)C3)NC(c2nccs2)=N[C@H]1c1cccc(F)c1Cl (single isomer, unassigned) [Example 120]	87000 nM	9083	0 mL/min/kg	9.6 nM	317 µg/mL (≈ 542 µM)		
COC(=O)C1=C(CN2C3COCC2CC(O)(CO)C3)NC(c2nccs2)=N[C@H]1c1ccc(F)cc1Cl (stereo partly drawn) [Example 10, (R)-4-(2-Chloro-4-fluoro-phenyl)-6-(7-hydroxy-7-hydroxymethyl-3-oxa-9-aza-bicyclo[3.3.1]non-9-ylmethyl)-2-thiazol-2-yl-1,4-dihydro-pyrimidine-5-carboxylic acid methyl ester]	> 100000 nM	>11364		8.8 nM	435 µg/mL (≈ 810 µM)		
COC(=O)C1=C(CN2C3COCC2CC(CC(=O)O)C3)NC(c2nccs2)=N[C@H]1c1ccc(F)cc1Br (stereo partly drawn) [Example 28, (R)-4-(2-Bromo-4-fluoro-phenyl)-6-(7-carboxymethyl-3-oxa-9-aza-bicyclo[3.3.1]non-9-ylmethyl)-2-thiazol-2-yl-1,4-dihydro-pyrimidine-5-carboxylic acid methyl ester]	> 100000 nM	>9804	0.6 mL/min/kg	15 nM	> 655 µg/mL		
COC(=O)C1=C(CN2C3COCC2c2c(n(C)[nH]c2=O)C3)NC(c2nccs2)=N[C@H]1c1ccc(F)cc1Cl (stereo partly drawn) [Example 33, (R)-4-(2-Chloro-4-fluoro-phenyl)-6-(5-methyl-3-oxo-10-oxa-4,5,12-triaza-tricyclo[6.3.1.0*2,6*]dodec-2(6)-en-12-ylmethyl)-2-thiazol-2-yl-1,4-dihydro-pyrimidine-5-carboxylic acid methyl ester]	> 100000 nM	>9091		11 nM	100 µg/mL (≈ 179 µM)		
COC(=O)C1=C(CN2CC3(CO)CC2CO3)NC(c2nccs2)=N[C@H]1c1ccc(F)cc1Cl (stereo partly shown) [Example 39]	> 100000 nM	>5848		32 nM		7.4 mL/min/kg	> 610 µg/mL
CCOC(=O)C1=C(CN2C3COCC2C(C(=O)O)C3)NC(c2nccs2)=N[C@H]1c1ccc(F)cc1Br (stereo partly drawn) [Example 52, 8-[[(4R)-4-(2-bromo-4-fluoro-phenyl)-5-ethoxycarbonyl-2-thiazol-2-yl-1,4-dihydropyrimidin-6-yl]methyl]-3-oxa-8-azabicyclo[3.2.1]octane-6-carboxylic acid]	> 100000 nM	>5587	2.7 mL/min/kg	17.9 nM	> 630 µg/mL		
COC(=O)C1=C(CN2C3COCC2CN(C(N)=O)C3)NC(c2nccs2)=N[C@H]1c1ccc(F)cc1Br [Example 54, Methyl (4R)-4-(2-bromo-4-fluoro-phenyl)-6-[(7-carbamoyl-3-oxa-7,9-diazabicyclo[3.3.1]nonan-9-yl)methyl]-2-thiazol-2-yl-1,4-dihydropyrimidine-5-carboxylate]	60000 nM	7300	6.5 mL/min/kg	8.2 nM	119 µg/mL (≈ 205 µM)		
COC(=O)C1=C(CN2[C@@H]3COC[C@H]2C[C@H](CC(=O)O)C3)NC(c2nccs2)=N[C@H]1c1ccc(F)cc1Br [Example 58, 2-[(1S,5R)-9-[[(4R)-4-(2-bromo-4-fluoro-phenyl)-5-methoxycarbonyl-2-thiazol-2-yl-1,4-dihydropyrimidin-6-yl]methyl]-3-oxa-9-azabicyclo[3.3.1]nonan-7-yl]acetic acid]	> 100000 nM	>8772	2.1 mL/min/kg	11.4 nM	> 701 µg/mL		
COC(=O)C1=C(CN2[C@@H]3COC[C@H]2C[C@H](CC(=O)O)C3)NC(c2nccs2)=N[C@H]1c1cccc(F)c1Cl [Example 59, Exo-2-[(1S,5R)-9-[[(4R)-4-(2-chloro-3-fluoro-phenyl)-5-methoxycarbonyl-2-thiazol-2-yl-1,4-dihydropyrimidin-6-yl]methyl]-3-oxa-9-azabicyclo[3.3.1]nonan-7-yl]acetic acid]	> 100000 nM	>6410	2.1 mL/min/kg	15.6 nM	> 732 µg/mL		
COC(=O)C1=C(CN2[C@H]3COC[C@@H]2[C@H](CC(=O)O)C3)NC(c2nccs2)=N[C@H]1c1ccc(F)cc1Br [Example 64, 2-[(1R,5S,6S)-8-[[(4R)-4-(2-bromo-4-fluoro-phenyl)-5-methoxycarbonyl-2-thiazol-2-yl-1,4-dihydropyrimidin-6-yl]methyl]-3-oxa-8-azabicyclo[3.2.1]octan-6-yl]acetic acid]	> 100000 nM	>6024	2.6 mL/min/kg	16.6 nM	660 µg/mL (≈ 1140 µM)		
COC(=O)C1=C(CN2[C@@H]3C[C@@H](CC(=O)O)C[C@H]2C(F)(F)C3)NC(c2nccs2)=N[C@H]1c1ccc(F)c(F)c1C [Example 111, 2-[(1R,3R,5S)-8-[[(4S)-4-(3,4-difluoro-2-methyl-phenyl)-5-methoxycarbonyl-2-thiazol-2-yl-1,4-dihydropyrimidin-6-yl]methyl]-6,6-difluoro-8-azabicyclo[3.2.1]octan-3-yl]acetic acid]	79000 nM	65983	4.8 mL/min/kg	1.2 nM			
CCOC(=O)C1=C(CN2C3COCC2C(F)(F)[C@H](CC(=O)O)C3)NC(c2nccs2)=N[C@H]1c1ccc(F)c(F)c1C (stereo partly drawn) [Example 128, 2-[(7S)-9-[[(4S)-4-(3,4-difluoro-2-methyl-phenyl)-5-ethoxycarbonyl-2-thiazol-2-yl-1,4-dihydropyrimidin-6-yl]methyl]-6,6-difluoro-3-oxa-9-azabicyclo[3.3.1]nonan-7-yl]acetic acid]	35000 nM	14056	3.8 mL/min/kg	2.5 nM			
COC(=O)C1=C(CN2CC3(CNC(C)=O)CC2CO3)NC(c2nccs2)=N[C@H]1c1ccc(F)cc1Cl (stereo partly drawn) [Example 145, Methyl (4R)-6-[[4-(acetamidomethyl)-5-oxa-2-azabicyclo[2.2.1]heptan-2-yl]methyl]-4-(2-chloro-4-fluoro-phenyl)-2-thiazol-2-yl-1,4-dihydropyrimidine-5-carboxylate]	> 100000 nM	>5882		17 nM			585 µg/mL (≈ 1100 µM)
